Like-named read-outs stand apart in the source and are kept apart here. Each block holds one compound with its values, some of them ahead of it.
Columns and labels:
[1] = Serum levels after two weeks of 400 mg bid or tid dosing; format: in vivo, healthy subjects; settings: 400 mg tid for two weeks; day 14
Experimental: Healthy subjects were dosed with two regimens of 400 mg. of a compound of Formula 1a, twice per day (bid) or three times per day (tid) for a period of two weeks. Blood samples were taken on day 14 in the morning at time zero (pre-dose) and at 12 hours post-dose (for the bid regimen) or 8 hours post-dose (for the tid regimen). As shown in the box plots, with tid dosing a metabolism effect is observed. Serum levels of the drug are higher at time zero, 8 hours after the previous evening dose, as compared to serum levels of the drug when measured 8 hours following the morning dose.

[2] = Single dose, randomized fed vs. fasted study of the effect of food on bioavailability (pharmacokinetics); format: in vivo, healthy subjects; settings: for Relative bioavailability, AUC (tf) Ratio Estimate / Relative bioavailability, AUC(l) Ratio Estimate / Relative bioavailability, Cmax Ratio Estimate: fed vs fasted; for increase of Cmax relative to fasted state / increase of mean AUCs relative to fasted state: based on ratio estimates; for half-life: read-out: t½ (mean) (converted)
Experimental: A single dose, randomized, two-treatment (fed vs. fasted) study was conducted to assess the effect of food on bioavailability of a compound of the present invention (SCH 503034 or Compound Ia). A single oral dose of 600 mg. of compound of Formula Ia was administered to two groups of healthy subjects. Group A received the dose after an overnight 10-hour fast; Group B received the dose about twenty minutes after consuming a high fat breakfast of 850 calories having 53.8 g fat (57% of calories from fat) or low fat breakfast of 451 calories. Blood samples were collected immediately prior to dosing (time zero) and at times 0.5, 1, 1.5, 2, 2.5, 3, 4, 6, 8, 12, 24, 36, 48, and 72 hours post dose. Results of measurement of mean maximum concentration (Cmax) of compound of Formula Ia in serum in ng/ml are shown in Table 1 and FIG. 1 (graph of mean plasma concentration of the compound versus Time). Calculations of AUC(tf) (area under the curve at time final), AUC(I) (area under the curve extrapolated to infinity), t½ (time at which one-half of the compound has disappeared from the blood), Tmax (time at which maximum serum concentration is achieved), CL/F (clearance divided by bioavailability), and Vd/F (volume of distribution divided by bioavailability) are made according to standard formulas known to one skilled in the art of drug metabolism and pharmacokintics.

[3] = human, serum, po, 600 mg, single oral dose 600 mg, fasted, balanced data
[4] = human, serum, po, 600 mg, single oral dose 600 mg, fed (high fat diet), balanced data
[5] = human, serum, po, 600 mg, single oral dose 600 mg, fed (non fat diet), balanced data

serum levels at time zero (8 hours after the previous evening dose) compared to 8 hours following the morning dose [1]: higher
SMILES: CC(C)(C)NC(=O)N[C@H](C(=O)N1C[C@H]2[C@@H]([C@H]1C(=O)NC(CC1CCC1)C(=O)C(N)=O)C2(C)C)C(C)(C)C (stereo partly drawn) [compound of Formula 1a, (1R,5S)-N-[3-Amino-1-(Cyclobutylmethyl)-2,3-Dioxopropyl]-3-[2(S)-[[[(1,1-Dimethylethyl)Amino]Carbonyl]Amino]-3,3-Dimethyl-1-Oxobutyl]-6,6-Dimethyl-3-Azabicyclo[3.1.0]Hexan-2(S)-Carboxamide]

Relative bioavailability, AUC (tf) Ratio Estimate ([2]; compare B/A, balanced data): 317%
Relative bioavailability, AUC(l) Ratio Estimate ([2]; compare B/A, balanced data): 276%
Relative bioavailability, Cmax Ratio Estimate ([2]; compare B/A, balanced data): 223%
Relative bioavailability, AUC (tf) Ratio Estimate ([2]; compare C/A, balanced data): 182%
Relative bioavailability, AUC(l) Ratio Estimate ([2]; compare C/A, balanced data): 167%
Relative bioavailability, Cmax Ratio Estimate ([2]; compare C/A, balanced data): 129%
absorption lag time ([2]; fed state with high fat diet, in 8 of the 12 subjects who completed all three periods): 0.5 h
absorption lag time ([2]; fed state with non fat diet, 7 subjects): 0.5 h
increase of Cmax relative to fasted state ([2]; high fat diet): 123%
increase of mean AUCs relative to fasted state ([2]; high fat diet): over 200%
Cmax [2, 3]: 502 ng/mL
Vd/F [2, 3]: 4580 L
AUC ([2]; human, serum, po, 600 mg, single oral dose 600 mg, fasted, balanced data, read-out: AUC(l) (mean)): 1630 ng·h/mL
AUC ([2]; human, serum, po, 600 mg, single oral dose 600 mg, fasted, balanced data, read-out: AUC(tf) (mean)): 1560 ng·h/mL
Tmax ([2]; human, serum, po, 600 mg, single oral dose 600 mg, fasted, balanced data, read-out: Tmax, median (range)): 1.5 h
half-life [2, 3]: 7.61 h
Cmax [2, 4]: 1150 ng/mL
Vd/F [2, 4]: 418 L
AUC ([2]; human, serum, po, 600 mg, single oral dose 600 mg, fed (high fat diet), balanced data, read-out: AUC(l) (mean)): 4440 ng·h/mL
AUC ([2]; human, serum, po, 600 mg, single oral dose 600 mg, fed (high fat diet), balanced data, read-out: AUC(tf) (mean)): 5090 ng·h/mL
half-life [2, 4]: 2.01 h
Cmax [2, 5]: 639 ng/mL
Vd/F [2, 5]: 1140 L
AUC ([2]; human, serum, po, 600 mg, single oral dose 600 mg, fed (non fat diet), balanced data, read-out: AUC(l) (mean)): 2750 ng·h/mL
AUC ([2]; human, serum, po, 600 mg, single oral dose 600 mg, fed (non fat diet), balanced data, read-out: AUC(tf) (mean)): 3040 ng·h/mL
half-life [2, 5]: 3.2 h
increase of Cmax relative to fasted state ([2]; non fat diet): 29%
increase of mean AUCs relative to fasted state ([2]; non fat diet): about 100%
CL/F (mean) ([2]; single oral dose 600 mg, fasted, balanced data): 407 L/h
CL/F (mean) ([2]; single oral dose 600 mg, fed (high fat diet), balanced data): 144.0 L/h
CL/F (mean) ([2]; single oral dose 600 mg, fed (non fat diet), balanced data): 243 L/h
rate of absorption in the fed state (vs fasted) ([2]; single oral dose 600 mg, fed state): more slowly
SMILES: CC(C)(C)NC(=O)N[C@H](C(=O)N1C[C@H]2[C@@H]([C@H]1C(=O)NC(CC1CCC1)C(=O)C(N)=O)C2(C)C)C(C)(C)C (mixture of isomers) [SCH 503034]

Reference: patent publication US8119602B2, “Administration of HCV protease inhibitors in combination with food to improve bioavailability” (Schering Corporation, priority 2005, dated 2012)
